The results in this text go back to doi:10.1101/2025.10.27.684712v1, “Structure-guided development of a potent human B^0AT1 inhibitor effective in a mouse model of phenylketonuria” (biorxiv, 2025).

The target in assay [1] is T1, hB^0AT1 (human SLC6A19) co-expressed with human Collectrin (Homo sapiens, UniProt Q695T7).
T1 construct: hSLC6A19-T2A-hCollectrin synthetic construct, wild type, doxycycline-inducible in JTREx-CHO cells; with Collectrin
T1 sequence (Q695T7 1-634): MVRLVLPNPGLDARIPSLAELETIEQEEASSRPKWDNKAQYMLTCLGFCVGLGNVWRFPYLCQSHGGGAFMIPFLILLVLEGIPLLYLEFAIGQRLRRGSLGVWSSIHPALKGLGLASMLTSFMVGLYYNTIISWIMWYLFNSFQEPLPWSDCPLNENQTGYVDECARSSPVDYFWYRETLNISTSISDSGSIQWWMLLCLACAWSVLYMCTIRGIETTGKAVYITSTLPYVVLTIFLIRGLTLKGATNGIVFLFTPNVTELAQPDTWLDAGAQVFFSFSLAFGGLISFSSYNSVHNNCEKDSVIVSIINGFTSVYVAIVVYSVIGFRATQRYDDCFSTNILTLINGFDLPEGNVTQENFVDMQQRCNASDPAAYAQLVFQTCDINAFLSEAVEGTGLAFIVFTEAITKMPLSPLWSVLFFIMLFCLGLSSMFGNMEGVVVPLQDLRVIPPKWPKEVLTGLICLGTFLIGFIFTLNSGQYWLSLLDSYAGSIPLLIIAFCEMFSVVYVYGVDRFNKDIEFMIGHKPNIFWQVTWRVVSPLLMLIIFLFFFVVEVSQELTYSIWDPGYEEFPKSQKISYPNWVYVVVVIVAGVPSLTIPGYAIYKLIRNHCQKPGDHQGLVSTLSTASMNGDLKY
T1 sequence (Q9HBJ8 15-222 partner): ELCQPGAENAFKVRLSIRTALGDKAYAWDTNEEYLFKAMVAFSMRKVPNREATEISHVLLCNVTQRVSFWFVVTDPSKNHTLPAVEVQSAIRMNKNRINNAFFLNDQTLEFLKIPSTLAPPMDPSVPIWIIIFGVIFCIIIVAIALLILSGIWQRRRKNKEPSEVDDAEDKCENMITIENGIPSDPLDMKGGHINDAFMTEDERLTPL
The experiment in a line: inhibition of d5-phenylalanine uptake, LC-MS/MS. Format: cell-based.

Assay [2] concerns the target T2, mB^0AT1 (mouse SLC6A19) co-expressed with mouse Collectrin (Mus musculus, UniProt Q9D687).
T2 construct: mSLC6A19-T2A-mCollectrin synthetic construct, doxycycline-inducible in JTREx-CHO cells; with Collectrin
T2 sequence (Q9D687 1-634): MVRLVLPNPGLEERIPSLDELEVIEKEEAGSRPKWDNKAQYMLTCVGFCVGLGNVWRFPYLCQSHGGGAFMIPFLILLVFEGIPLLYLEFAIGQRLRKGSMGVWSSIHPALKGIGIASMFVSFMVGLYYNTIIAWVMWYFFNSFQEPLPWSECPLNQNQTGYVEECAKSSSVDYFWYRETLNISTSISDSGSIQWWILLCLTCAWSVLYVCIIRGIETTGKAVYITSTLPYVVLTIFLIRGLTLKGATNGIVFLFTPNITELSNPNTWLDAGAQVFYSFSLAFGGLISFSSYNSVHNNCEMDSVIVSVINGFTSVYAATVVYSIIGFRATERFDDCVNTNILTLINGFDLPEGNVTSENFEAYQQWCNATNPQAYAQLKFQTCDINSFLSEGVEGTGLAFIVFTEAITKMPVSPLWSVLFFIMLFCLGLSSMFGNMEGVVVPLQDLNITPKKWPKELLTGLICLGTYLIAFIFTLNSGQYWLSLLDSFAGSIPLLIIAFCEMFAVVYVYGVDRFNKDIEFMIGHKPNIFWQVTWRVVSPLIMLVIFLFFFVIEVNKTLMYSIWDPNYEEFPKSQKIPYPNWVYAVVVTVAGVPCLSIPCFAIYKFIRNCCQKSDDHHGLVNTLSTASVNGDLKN
T2 sequence (Q9ESG4 15-222 partner): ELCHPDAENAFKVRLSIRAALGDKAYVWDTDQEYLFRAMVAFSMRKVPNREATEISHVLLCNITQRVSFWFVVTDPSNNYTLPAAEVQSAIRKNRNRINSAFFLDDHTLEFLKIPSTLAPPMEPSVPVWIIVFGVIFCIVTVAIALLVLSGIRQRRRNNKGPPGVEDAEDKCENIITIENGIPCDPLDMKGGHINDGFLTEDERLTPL
The experiment in a line: inhibition of d5-phenylalanine uptake, LC-MS/MS. The assay is classed as cell-based.

The target in another assay is T3, hB^0AT1-ACE2 complex (Homo sapiens, UniProt Q695T7).
T3 construct: gene SLC6A19; wild type; N-terminal FLAG on B0AT1, Strep-tag after ACE2 signal peptide; FreeStyle 293-F; with Angiotensin-converting enzyme 2
T3 sequence (Q9BYF1 18-805 partner, one chain of several): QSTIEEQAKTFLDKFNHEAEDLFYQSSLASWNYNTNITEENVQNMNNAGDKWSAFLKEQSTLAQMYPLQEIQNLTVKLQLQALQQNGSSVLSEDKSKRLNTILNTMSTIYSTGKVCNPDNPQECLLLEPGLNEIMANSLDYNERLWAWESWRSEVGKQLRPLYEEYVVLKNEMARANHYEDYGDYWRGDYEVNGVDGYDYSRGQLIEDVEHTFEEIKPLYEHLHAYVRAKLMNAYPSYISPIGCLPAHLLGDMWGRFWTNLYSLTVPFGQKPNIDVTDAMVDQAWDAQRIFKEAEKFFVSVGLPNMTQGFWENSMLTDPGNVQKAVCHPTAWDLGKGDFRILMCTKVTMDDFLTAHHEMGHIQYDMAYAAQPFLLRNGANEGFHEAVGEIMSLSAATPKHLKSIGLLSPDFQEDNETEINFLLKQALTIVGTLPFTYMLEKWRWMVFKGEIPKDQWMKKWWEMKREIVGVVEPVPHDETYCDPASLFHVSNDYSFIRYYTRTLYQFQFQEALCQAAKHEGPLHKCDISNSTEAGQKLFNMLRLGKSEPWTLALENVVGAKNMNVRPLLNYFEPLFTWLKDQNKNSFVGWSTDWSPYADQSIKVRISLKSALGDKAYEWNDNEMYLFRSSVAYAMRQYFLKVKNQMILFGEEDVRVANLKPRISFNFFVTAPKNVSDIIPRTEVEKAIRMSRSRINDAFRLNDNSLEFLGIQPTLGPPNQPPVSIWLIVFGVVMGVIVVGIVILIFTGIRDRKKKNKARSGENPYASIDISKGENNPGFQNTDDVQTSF
Put plainly: binding to crude membranes, filtration and LC-MS/MS.

For assay [3], the target named is T1, hB^0AT1 (human SLC6A19) co-expressed with human Collectrin. The experiment in a line: d5-phenylalanine uptake kinetics, LC-MS/MS. The assay is classed as cell-based. As to conditions: labelled compound; 100 mM NaCl, pH 7.4, 37 °C, no inhibitor.

`CCNC(=O)/C=C/c1cccc(Br)c1` [compound 1, Cinromide]: the IC50 (commonly the concentration at which inhibition is half-maximal) in assay [1] is 970 nM; in assay [2], above 10000 nM. For the same compound, the Kd (in general, the constant that tells how readily two partners part at equilibrium) on hB^0AT1-ACE2 complex amounted to 472 nM.
For `CN(C)C(=O)CNC(=O)/C=C/c1ccc(C(F)(F)F)cc1` [compound 2] the same measures were 5500 nM, 1980 nM and 140 nM.
Regarding `O=C(/C=C/c1ccc(C(F)(F)F)cc1)NCC(=O)N1CCNC(=O)C1` [compound 3], the half-inhibitory concentration (IC50) in assay [1] worked out at 513 nM; in assay [2], 295 nM. For the same compound, on hB^0AT1-ACE2 complex, the Kd is 47 nM.
Consider d5-phenylalanine, for which the Km (in general, the substrate concentration at which the rate is half of its maximum) in assay [3] was determined as 866 ± 144 µM.
